In US9724352B2, “Pyrrolo[2,1-F[1,2,4]triazine compounds, preparation methods and applications thereof” (Shanghai Institute of Materia Medica, Chinese Academy of …, priority 2012, dated 2017):

How the values were obtained:
[1] = tested on: B-BT474; assay: Proliferation of human cancer cell panel; type: cell-based; conditions: read-out: inhibitory activity on proliferation
From the text: (§1) I-30 and I-33 were selected to test their activity on the proliferation of human cancer cells originated from different tissue types.

[2] = tested on: rhabdomyosarcoma cells S-RH30; assay: Proliferation of human cancer cell panel; type: cell-based; conditions: read-out: inhibitory activity on proliferation
From the text: as §1

[3] = tested on: LG-NCI-H460; assay: Proliferation of human cancer cell panel; type: cell-based; conditions: read-out: inhibitory activity on proliferation
From the text: as §1

[4] = tested on: P-PC-3; assay: Proliferation of human cancer cell panel; type: cell-based; conditions: read-out: inhibitory activity on proliferation
From the text: as §1

[5] = tested on: O-SKOV-3; assay: Proliferation of human cancer cell panel; type: cell-based; conditions: read-out: inhibitory activity on proliferation
From the text: as §1

[6] = tested on: endometrial cancer cells E-RL95-2; assay: Proliferation of human cancer cell panel; type: cell-based; conditions: read-out: inhibitory activity on proliferation
From the text: as §1

[7] = tested on: colon cancer cells C-HCT-116; assay: Proliferation of human cancer cell panel; type: cell-based; conditions: read-out: inhibitory activity on proliferation
From the text: as §1

[8] = tested on: colorectal cancer cells C-LOVO; assay: Proliferation of human cancer cell panel; type: cell-based; conditions: read-out: inhibitory activity on proliferation
From the text: as §1

[9] = tested on: LG-NCI-H23; assay: Proliferation of human cancer cell panel; type: cell-based; conditions: read-out: inhibitory activity on proliferation
From the text: as §1

[10] = tested on: hepatoma cells L-BEL-7402; assay: Proliferation of human cancer cell panel; type: cell-based; conditions: read-out: inhibitory activity on proliferation
From the text: as §1

[11] = tested on: gastric cancer cells G-MKN-45; assay: Proliferation of human cancer cell panel; type: cell-based; conditions: read-out: inhibitory activity on proliferation
From the text: as §1

[12] = tested on: human esophagus cancer KYSE 410 xenograft; assay: Growth of KYSE 410 xenograft subcutaneously transplanted in nude mouse; type: in vivo; conditions: for Relative tumor proliferation rate T/C: 50 mg/kg p.o. once every day
Experimental: Well-developed tumors in nude mice were cut into 1.5 mm3 fragments and transplanted s.c. into the right flank of nude mice under sterile conditions. The diameters of subcutaneously transplanted tumours in nude mice were measured with a vernier calipe. When the tumour reached a volume 170 mm3, the mice were randomly assigned into two treatment groups: CYH33 50 mg/kg group or BYL-719 50 mg/kg group. Control groups were given the same amount of normal saline, and treatment groups received tested compounds (p.o). Compounds were administered orally once every day for 3 weeks. Evaluation index of antitumor activity was relative tumor proliferation rate T/C (%), the calculation formula of which was as follows: T/C (%)=(TRTV/CRTV)×100%, TRTV:RTV of treatment group; CRTV:RTV of negative control group.

[13] = tested on: PI3K signaling in human glioma U87MG cells; assay: PI3K signaling after IGF-1 stimulation (Western blot), U87MG; type: cell-based; conditions: compound 1 h, IGF-1 10 minutes
Experimental: (§2) Rh30 and U87MG cells were seeded in 12-well plates at 2×10^5 cells/well. On the next day, cells were incubated in fresh serum-free culture media subjected to starvation for 24 hours. Cells were then treated with different concentrations of compound I-33 for 1 h. After stimulated with IGF-1 for 10 minutes, the lysed cells were collected, and 4×SDS loading buffer [200 mM Tris.Cl (pH 6.8), 400 mM DTT, 8% SDS (sodium dodecyl sulfate), 0.4% bromophenol blue, 40% glycerol] was added. The cell lysates were boiled for 10 minutes. Aliquot was loaded on polyacrylamide gel and electrophoresis was performed in Tris-glycine electrophoresis buffer (25 mM Tris, 250 mM glycine, 0.1% SDS) at 80-100 V for 2-2.5 hours. The proteins were transformed from gel to nitrocellulose filter membrane by using semidry method. The filter membrane was blocked with blocking solution containing 5% skim milk powder (5% skim milk powder, 20 mM Tris-HCl (pH 7.2-7.4), 150 mM NaCl, 0.1% (v/v) Tween20) in a shaker at room temperature for 2 hours. Then specific primary antibody was added and hybridized at 4° C. overnight. The membrane was washed by washing buffer [20 mM Tris-HCl (pH 7.2-7.4), 150 mM NaCl, 0.1% (v/v) Tween20] for three times at room temperature, 15 minutes each time. […]

[14] = tested on: human rhabdomyosarcoma Rh30 cells; assay: Proliferation of Rh30 cells (sulforhodamine B); type: cell-based; conditions: Homo sapiens, Rh30, 72 h; read-out: IC50 against proliferation of Rh30 cells
Outline: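 Rh30 cells (3000/well) were treated after adherence with compound at 10, 3, 1, 0.3 or 0.1 μM for 72 h. TCA-fixed cells were stained with sulforhodamine B, dye solubilised in Tris buffer and OD read at 560 nm.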

[15] = tested on: COLO680N; assay: Proliferation of human esophagus cancer cells; type: cell-based; conditions: COLO-680N
From the text: (§3) Compounds BYL719 (shown below), CYH33 (compound I-33) and I-27 were selected to test their activity on the proliferation of 11 species of human esophagus cancer cells.
(§4) The results reported in FIG. 3 were the average GI50 value and SD value of three experiments. The results were arranged according to the GI50 value of CYH33.

[16] = tested on: KYSE410; assay: Proliferation of human esophagus cancer cells; type: cell-based
From the text: as §3, §4

[17] = tested on: KYSE180; assay: Proliferation of human esophagus cancer cells; type: cell-based
From the text: as §3, §4

[18] = molecular target: PI3Kα (Homo sapiens (Human), UniProt P42336); assay: Inhibition on PI3K kinase activity (Kinase-Glo Plus luminescent assay); type: biochemical; conditions: 2 μM ATP, 1 hour at room temperature
Chain of PI3Kα (P42336 whole entry): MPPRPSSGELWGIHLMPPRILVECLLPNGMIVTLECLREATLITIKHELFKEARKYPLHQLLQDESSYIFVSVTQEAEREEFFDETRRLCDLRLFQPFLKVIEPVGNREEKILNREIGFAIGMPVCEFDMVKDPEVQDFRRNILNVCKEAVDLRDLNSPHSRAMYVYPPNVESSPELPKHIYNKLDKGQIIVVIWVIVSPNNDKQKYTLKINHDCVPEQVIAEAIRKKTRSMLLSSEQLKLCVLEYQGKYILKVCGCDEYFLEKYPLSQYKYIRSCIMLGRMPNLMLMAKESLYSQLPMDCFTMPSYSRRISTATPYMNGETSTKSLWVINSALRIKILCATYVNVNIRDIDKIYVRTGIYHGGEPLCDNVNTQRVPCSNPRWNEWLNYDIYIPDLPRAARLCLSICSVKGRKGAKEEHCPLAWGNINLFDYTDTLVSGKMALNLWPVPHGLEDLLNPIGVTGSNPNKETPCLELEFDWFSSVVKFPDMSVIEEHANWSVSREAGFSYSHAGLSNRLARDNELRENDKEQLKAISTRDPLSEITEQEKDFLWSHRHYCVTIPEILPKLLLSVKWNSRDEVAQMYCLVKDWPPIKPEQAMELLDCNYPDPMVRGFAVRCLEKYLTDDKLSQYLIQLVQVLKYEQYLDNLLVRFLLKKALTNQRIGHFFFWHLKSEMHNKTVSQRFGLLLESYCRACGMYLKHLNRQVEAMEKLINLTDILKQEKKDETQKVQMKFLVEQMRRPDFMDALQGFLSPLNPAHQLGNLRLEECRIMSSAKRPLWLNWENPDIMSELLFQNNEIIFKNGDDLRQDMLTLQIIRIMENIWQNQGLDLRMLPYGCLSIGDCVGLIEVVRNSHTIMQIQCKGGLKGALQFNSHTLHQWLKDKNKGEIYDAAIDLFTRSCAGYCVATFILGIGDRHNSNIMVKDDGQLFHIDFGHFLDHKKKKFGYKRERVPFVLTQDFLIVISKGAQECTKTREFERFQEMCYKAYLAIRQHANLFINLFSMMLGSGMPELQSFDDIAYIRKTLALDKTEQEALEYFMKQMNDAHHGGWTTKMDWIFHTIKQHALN
Chain of PI3Kα (P27986 whole entry partner): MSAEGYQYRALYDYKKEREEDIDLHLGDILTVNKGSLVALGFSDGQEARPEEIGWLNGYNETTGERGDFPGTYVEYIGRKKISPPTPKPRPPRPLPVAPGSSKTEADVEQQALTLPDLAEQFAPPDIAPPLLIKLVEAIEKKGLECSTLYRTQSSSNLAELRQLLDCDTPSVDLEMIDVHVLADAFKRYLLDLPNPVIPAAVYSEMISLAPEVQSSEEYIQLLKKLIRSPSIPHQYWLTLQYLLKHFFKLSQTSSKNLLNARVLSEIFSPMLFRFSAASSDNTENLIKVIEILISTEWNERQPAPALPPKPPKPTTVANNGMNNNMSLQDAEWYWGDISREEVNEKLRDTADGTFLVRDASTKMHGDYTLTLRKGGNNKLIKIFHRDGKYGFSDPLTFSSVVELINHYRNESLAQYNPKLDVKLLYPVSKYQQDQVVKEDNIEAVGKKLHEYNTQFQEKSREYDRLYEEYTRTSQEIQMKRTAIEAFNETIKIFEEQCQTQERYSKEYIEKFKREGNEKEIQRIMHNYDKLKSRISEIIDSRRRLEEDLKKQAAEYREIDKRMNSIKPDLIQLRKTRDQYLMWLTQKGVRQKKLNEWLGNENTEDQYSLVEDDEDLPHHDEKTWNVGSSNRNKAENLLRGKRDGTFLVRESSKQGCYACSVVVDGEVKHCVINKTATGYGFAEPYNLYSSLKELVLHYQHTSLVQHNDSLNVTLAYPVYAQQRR
Experimental: The activity of purified kinase was detected with Kinase-Glo® Plus kinase luminescent assay by measuring the amount of the remaining […] in the solution after the kinase reaction was completed. […] After reaction was performed for 1 hour at room temperature, 10 μL of Kinase Glo-Plus mixture was added and incubated for 1 hour to quench the reaction.

[19] = tested on: PI3K signaling in human rhabdomyosarcoma Rh30 cells; assay: PI3K signaling after IGF-1 stimulation (Western blot), Rh30; type: cell-based; conditions: compound 1 h, IGF-1 10 minutes
Experimental: as §2

`COC(=O)Nc1cc(C(F)(F)F)c(-c2nc(N3CCOCC3)c3cc(CN4CCN(S(C)(=O)=O)CC4)cn3n2)cn1` [Compound I-33, Methyl (5-(6-((4-(methylsulfonyl)piperazin-1-yl)methyl)-4-morpholinopyrrolo[2,1-f][1,2,4]triazin-2-yl)-4-(trifluoromethyl)pyridin-2-yl)carbamate] was tested, and the IC50 [1] was 62 nM, the IC50 [2] was 486 nM and the IC50 [3] was 1520 nM. The IC50 [4] was 1580 nM, the IC50 [5] was 277 nM and the IC50 [6] was 5300 nM. It also gave an IC50 [7] of 10000 nM, an IC50 [8] of 1330 nM and an IC50 [9] of 730 nM. The IC50 [10] was 4900 nM, the IC50 [11] was 3400 nM and the “growth of KYSE 410 xenograft (in words)” value ([12]; 50 mg/kg p.o. every day for 3 weeks) was “significantly slowed down”. The “Relative tumor proliferation rate T/C” value ([12]; d0) was 100.00%, the “Relative tumor proliferation rate T/C” value ([12]; d3) was 65.56% and the “Relative tumor proliferation rate T/C” value ([12]; d7) was 30.11%. The “Relative tumor proliferation rate T/C” value ([12]; d10) was 25.23%, the “Relative tumor proliferation rate T/C” value ([12]; d14) was 13.79% and the “Relative tumor proliferation rate T/C” value ([12]; d17) was 10.51%. For the same compound, the “Relative tumor proliferation rate T/C” value ([12]; d21) was 9.13%, the “transduction of PI3K signaling” value [13] was “significantly inhibited” and the IC50 [14] was 2520 nM. The GI50 ([15]; 1st experiment) was 743 nM, the GI50 ([15]; 2nd experiment) was 530 nM and the GI50 ([15]; 3rd experiment) was 701 nM. It also gave a GI50 ([15]; mean of three experiments) of 658 nM, a GI50 ([16]; KYSE-410, KYSE410, 1st experiment) of 146 nM and a GI50 ([16]; KYSE-410, KYSE410, 2nd experiment) of 50 nM. The GI50 ([16]; KYSE-410, KYSE410, 3rd experiment) was 88 nM, the GI50 ([16]; KYSE-410, KYSE410, mean of three experiments) was 95 nM and the GI50 ([17]; KYSE-180, KYSE180, 1st experiment) was 1 nM. For the same compound, the GI50 ([17]; KYSE-180, KYSE180, 2nd experiment) was 11 nM, the GI50 ([17]; KYSE-180, KYSE180, 3rd experiment) was 16 nM and the GI50 ([17]; KYSE-180, KYSE180, mean of three experiments) was 9 nM. The IC50 [18] was 2.84 nM and the “transduction of PI3K signaling” value [19] was “significantly inhibited”.
